Source: patent publication EP0121352A1, “A leader sequence to promote the secretion of gene products” (priority 1983, dated 1984)

How the values were obtained:
[1] = molecular target: T1, Carboxypeptidase G2 (CPG2) purified from E.coli clone pNM21 (cloned gene from Pseudomonas species strain RS-16) (Pseudomonas sp., UniProt P06621); test: Km determination of purified carboxypeptidase G2 synthesised in E.coli (cloned gene product), methotrexate as substrate; format: biochemical, Pseudomonas species strain RS-16 (expressed in E.coli); settings: CPG2 purified from E.coli carrying pNM21; read-out: Km vallues using methotrexate as substrate
T1 construct: Amino acids 23 to 415 are the CPG2 structural gene; made in house; host or cells: E. coli W5445 carrying plasmid pNM21
Procedure: (§1) CPG2 activity was determined after J L McCullough et al, J.Biol.Chem, 1971, 246, 7207. A.lml reaction cuvette containing 0.9 ml of 0.1 M Tris-HCl, pH 7.3 plus 0.2 mM ZnSO4 and 0.1 ml of 0.6 mM methotrexate was equilibrated at 37°C. Enzyme extract was added to the test cuvette and the decrease in absorbance at 320 nm measured using a Pye-Unicam SP1800 double-beam spectrophotometer. Enzyme activity per ml extract was calculated as Δ 320 nm absorbance/min divided by 8.3, which is equivalent to the hydrolysis of 1 µmol of MTX/min at 37°C.
(§2) To determine whether the cloned gene= product in E.coli had the same properties as CPG2 from the pseudomonad, enzyme was purified from E.coli carrying pNM21.

[2] = molecular target: Carboxypeptidase G2 (CPG2) from Pseudomonas strain RS-16 (Pseudomonas sp., UniProt P06621); settings: read-out: Km vallues using methotrexate as substrate
Chain of Carboxypeptidase G2 (CPG2) from Pseudomonas strain RS-16 (P06621 23-415): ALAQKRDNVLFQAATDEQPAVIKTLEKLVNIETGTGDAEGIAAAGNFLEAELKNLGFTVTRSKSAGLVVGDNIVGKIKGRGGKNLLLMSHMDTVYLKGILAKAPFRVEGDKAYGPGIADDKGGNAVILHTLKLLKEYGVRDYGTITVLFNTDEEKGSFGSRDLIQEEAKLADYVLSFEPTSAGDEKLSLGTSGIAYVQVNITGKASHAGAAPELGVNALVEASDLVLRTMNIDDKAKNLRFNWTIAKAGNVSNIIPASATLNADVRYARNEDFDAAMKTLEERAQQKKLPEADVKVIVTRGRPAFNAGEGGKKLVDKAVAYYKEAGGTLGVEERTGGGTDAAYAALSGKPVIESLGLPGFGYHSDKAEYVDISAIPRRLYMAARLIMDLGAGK
Procedure: as §1, §2

T1 sequence (P06621 23-415): as above

CN(Cc1cnc2nc(N)nc(N)c2n1)c1ccc(C(=O)N[C@@H](CCC(=O)O)C(=O)O)cc1 [methotrexate]
Km [1]: 7.4 µM | Km [2]: 8 µM
